*1 amine or outer side, *2 acyl side, *3 side chain or, on linkers, in order; H or OH if unused. Where a SMILES comes first, the peptide text is derived from it. Bridges are numbered along the chain shown (N, C = ends). [ ]: non-standard residue; d: D form. The star is where a group is joined. hPhe(3-Cl-4-CF3) = N[C@@H](CCc1ccc(C(F)(F)F)c(Cl)c1)C(=O)O; NPrPhe(4-CF3) = CCCN[C@@H](Cc1ccc(C(F)(F)F)cc1)C(=O)O; X30 = C=CCCN([C@@H](Cc1ccc(C)cc1)C(=O)[*:2])[*:1]; X10 = C=CCN([C@@H](Cc1ccc(C)cc1)C(=O)[*:2])[*:1]; X16 = CCCN([C@@H](Cc1ccc(OC)cc1)C(=O)[*:2])[*:1]; NPrPhe(4-Me) = CCCN[C@@H](Cc1ccc(C)cc1)C(=O)O; NMeGly(cPent) = CN[C@H](C(=O)O)C1CCCC1; Aze(3S-Me) = C[C@H]1CN[C@@H]1C(=O)O; NMeAllylGly = C=CC[C@H](NC)C(=O)O; NMeD = CN[C@@H](CC(=O)O)C(=O)O; NMeL = CN[C@@H](CC(C)C)C(=O)O; Morpholide = C1CN(*)CCO1; NMeA = CN[C@@H](C)C(=O)O; Ac5c = NC1(C(=O)O)CCCC1; Aze = O=C(O)[C@@H]1CCN1; Sar = CNCC(=O)O
Legend:
[1] = target: GDP-bound KRAS wild-type protein (Homo sapiens, UniProt P01116); assay: Binding to KRAS by surface plasmon resonance (SPR), Single Cycle Kinetics; details: SPR Single Cycle Kinetics, GDP-bound KRAS wild-type protein, 1:1 binding model; read-out: KRAS KD
Sequence of GDP-bound KRAS wild-type protein (P01116 whole entry): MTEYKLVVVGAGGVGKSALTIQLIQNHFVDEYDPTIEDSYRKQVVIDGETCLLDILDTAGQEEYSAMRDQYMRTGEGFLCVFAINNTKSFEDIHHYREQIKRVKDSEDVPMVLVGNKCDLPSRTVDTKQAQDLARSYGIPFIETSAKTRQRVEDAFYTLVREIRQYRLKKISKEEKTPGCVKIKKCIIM

[2] = target: GDP-bound NRAS wild-type protein (Homo sapiens, UniProt P01111); assay: Binding to NRAS by surface plasmon resonance (SPR), Single Cycle Kinetics; details: SPR, GDP-bound NRAS wild-type protein vs GDP-bound KRAS wild-type protein
Sequence of GDP-bound NRAS wild-type protein (P01111 whole entry): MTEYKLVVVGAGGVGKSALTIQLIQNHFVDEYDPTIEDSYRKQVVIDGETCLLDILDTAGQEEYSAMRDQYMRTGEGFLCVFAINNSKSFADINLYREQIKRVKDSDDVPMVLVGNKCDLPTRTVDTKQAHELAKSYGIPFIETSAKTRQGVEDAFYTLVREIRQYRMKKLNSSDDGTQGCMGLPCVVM

[3] = target: GDP-bound HRAS wild-type protein (Homo sapiens, UniProt P01112); assay: Binding to HRAS by surface plasmon resonance (SPR), Single Cycle Kinetics; details: SPR, GDP-bound HRAS wild-type protein vs GDP-bound KRAS wild-type protein
Sequence of GDP-bound HRAS wild-type protein (P01112 whole entry): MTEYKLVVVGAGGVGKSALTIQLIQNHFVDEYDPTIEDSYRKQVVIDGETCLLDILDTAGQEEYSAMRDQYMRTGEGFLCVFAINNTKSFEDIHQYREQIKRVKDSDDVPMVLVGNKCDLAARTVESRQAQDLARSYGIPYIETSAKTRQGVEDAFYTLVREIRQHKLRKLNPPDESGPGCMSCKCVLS

Row | Compound | Kd [1] [nM] | NRAS/KRAS (ratio of KD value for NRAS to KD value for KRAS) [2] | HRAS/KRAS (ratio of KD value for HRAS to KD value for KRAS) [3]
1 | CCCN1C(=O)[C@@H]2CCN2C(=O)[C@H](C)N(C)C(=O)[C@H]([C@@H](C)CC)NC(=O)[C@H](CC(C)C)N(C)C(=O)C[C@@H](C(=O)N2CCOCC2)N(C)C(=O)[C@H](C2CCCC2)N(C)C(=O)C2(CCCC2)NC(=O)[C@@H]2CCCN2C(=O)[C@H](CCc2ccc(C(F)(F)F)c(Cl)c2)NC(=O)CN(C)C(=O)[C@@H]1Cc1ccc(OC)cc1 [PP0134] ([NMeL]I[NMeA][Aze][X16][Sar][hPhe(3-Cl-4-CF3)]P[Ac5c][NMeGly(cPent)][NMeD]-Morpholide; lactam N-11) | 0.66 | C (A compound having a KD ratio of 0.1 or more and less than 3 is denoted as C) | B (a compound having 3 or more and less than 10 is denoted as B)
2 | CCCN1C(=O)CN(C)C(=O)CN(C)C(=O)[C@H]([C@@H](C)CC)NC(=O)[C@H](CC(C)C)N(C)C(=O)C[C@@H](C(=O)N2CCOCC2)N(C)C(=O)[C@H](C2CCCC2)N(C)C(=O)C2(CCCC2)NC(=O)[C@@H]2CCCN2C(=O)[C@H](CCc2ccc(C(F)(F)F)c(Cl)c2)NC(=O)CN(C)C(=O)[C@@H]1Cc1ccc(OC)cc1 [PP0135] ([NMeL]I[Sar][Sar][X16][Sar][hPhe(3-Cl-4-CF3)]P[Ac5c][NMeGly(cPent)][NMeD]-Morpholide; lactam N-11) | 0.75 | B (a compound having 3 or more and less than 10 is denoted as B) | C (A compound having a KD ratio of 0.1 or more and less than 3 is denoted as C)
3 | CCCN1C(=O)[C@@H]2[C@@H](C)CN2C(=O)[C@H](C)N(C)C(=O)[C@H]([C@@H](C)CC)NC(=O)[C@H](CC(C)C)N(C)C(=O)C[C@@H](C(=O)N2CCOCC2)N(C)C(=O)[C@H](C2CCCC2)N(C)C(=O)C2(CCCC2)NC(=O)[C@@H]2CCCN2C(=O)[C@H](CCc2ccc(C(F)(F)F)c(Cl)c2)NC(=O)CN(C)C(=O)[C@@H]1Cc1ccc(C)cc1 [PP0138] ([NMeL]I[NMeA][Aze(3S-Me)][NPrPhe(4-Me)][Sar][hPhe(3-Cl-4-CF3)]P[Ac5c][NMeGly(cPent)][NMeD]-Morpholide; lactam N-11) | 0.77 | C (A compound having a KD ratio of 0.1 or more and less than 3 is denoted as C) | C (A compound having a KD ratio of 0.1 or more and less than 3 is denoted as C)
4 | C=CC[C@H]1C(=O)N(CC=C)[C@@H](Cc2ccc(C)cc2)C(=O)N(C)CC(=O)N[C@@H](CCc2ccc(C(F)(F)F)c(Cl)c2)C(=O)N2CCC[C@H]2C(=O)NC2(CCCC2)C(=O)N(C)[C@@H](C2CCCC2)C(=O)N(C)[C@H](C(=O)N2CCOCC2)CC(=O)N(C)[C@@H](CC(C)C)C(=O)N[C@@H]([C@@H](C)CC)C(=O)N(C)CC(=O)N1C [PP0139] ([NMeL]I[Sar][NMeAllylGly][X10][Sar][hPhe(3-Cl-4-CF3)]P[Ac5c][NMeGly(cPent)][NMeD]-Morpholide; lactam N-11) | 230 | C (A compound having a KD ratio of 0.1 or more and less than 3 is denoted as C) | C (A compound having a KD ratio of 0.1 or more and less than 3 is denoted as C)
5 | C=CCCN1C(=O)[C@H](CC=C)N(C)C(=O)CN(C)C(=O)[C@H]([C@@H](C)CC)NC(=O)[C@H](CC(C)C)N(C)C(=O)C[C@@H](C(=O)N2CCOCC2)N(C)C(=O)[C@H](C2CCCC2)N(C)C(=O)C2(CCCC2)NC(=O)[C@@H]2CCCN2C(=O)[C@H](CCc2ccc(C(F)(F)F)c(Cl)c2)NC(=O)CN(C)C(=O)[C@@H]1Cc1ccc(C)cc1 [PP0140] ([NMeL]I[Sar][NMeAllylGly][X30][Sar][hPhe(3-Cl-4-CF3)]P[Ac5c][NMeGly(cPent)][NMeD]-Morpholide; lactam N-11) | 800 | C (A compound having a KD ratio of 0.1 or more and less than 3 is denoted as C) | B (a compound having 3 or more and less than 10 is denoted as B)
6 | CCCN1C(=O)[C@@H]2[C@@H](C)CN2C(=O)[C@H](C)N(C)C(=O)[C@H]([C@@H](C)CC)NC(=O)[C@H](CC(C)C)N(C)C(=O)C[C@@H](C(=O)N2CCOCC2)N(C)C(=O)[C@H](C2CCCC2)N(C)C(=O)C2(CCCC2)NC(=O)[C@@H]2CCCN2C(=O)[C@H](CCc2ccc(C(F)(F)F)c(Cl)c2)NC(=O)CN(C)C(=O)[C@@H]1Cc1ccc(C(F)(F)F)cc1 [PP0141] ([NMeL]I[NMeA][Aze(3S-Me)][NPrPhe(4-CF3)][Sar][hPhe(3-Cl-4-CF3)]P[Ac5c][NMeGly(cPent)][NMeD]-Morpholide; lactam N-11) | 0.55 | C (A compound having a KD ratio of 0.1 or more and less than 3 is denoted as C) | B (a compound having 3 or more and less than 10 is denoted as B)
